Test results taken from patent US20130189727A1, “Methods And Compositions For Cellular Imaging And Cancer Cell Detection Using Light Harvesting Conjugated Polymer-Biomolecular Conjugates” (NATIONAL UNIVERSITY OF SINGAPORE, priority 2010, published 2013).
Read-outs that look alike come from different tables or passages of the source. Values belong to the compound of their own block, whether it stands above or below them. {NH2} = amino group (5'-NH2) on the aptamer

Columns and labels:
[1] = Photostability in stained cells under continuous laser scanning (CLSM); format: physicochemical; conditions: excitation at 405 nm; MCF-7 cells
Experimental: FIG. 2 is time-resolved confocal laser scanning microscopy (CLSM) fluorescence images of SKBR-3 breast cancer cells stained by affibody-attached P2 under laser scanning for (a) 0 min and (b) 15 minutes.
FIG. 8 is confocal image of Hela cells under continuous excitation (λmax=488 nm) after 0 min (A) and 15 min (B) and the fluorescence/transmission overlapped images of the corresponding cells (C, D) taken after incubation with P3-phalloidin for 2 h at 0.5 μM.
I0 is the initial fluorescence intensity of the sample […].
Targeted fluorescence imaging of HER2-positive cancer cells using a P2-affibody conjugate was investigated. […]
To explore the potential of the CPE-g-PEG molecular brush in long-term clinical applications, the photostability and cytotoxicity of P4.1 were investigated. Changes in the CLSM images of P4.1-stained MCF-7 cells under continuous laser scanning were monitored to evaluate the photostability of P4.1 in cells. […] In comparison, most commercial dyes (such as fluorescein, rhodamine and Cy5) usually lose their fluorescence within 3 minutes under CLSM laser illumination. […]
The uptake of HCPEPEI-1/DNA and HCPEPEI-2/DNA polyplexes by COS-7 cells was monitored using confocal lasing scanning microscopy (CLSM). […] The dual modal HCPEPEIs fluorescent gene vectors could facilitate in tracking the delivery of genes due to the intrinsic fluorescence from the HCPE core. […]

lysozyme [2] = target: T1, lysozyme (Gallus gallus, UniProt P00698); experiment: Aptamer/lysozyme binding affinity (Kd); design: species or system Hen
T1 construct: Hen egg white lysozyme, BSA, and human trypsin were ordered from Sigma-Aldrich; purchased Sigma-Aldrich; host or cells: hen egg white
T1 sequence (P00698 19-147): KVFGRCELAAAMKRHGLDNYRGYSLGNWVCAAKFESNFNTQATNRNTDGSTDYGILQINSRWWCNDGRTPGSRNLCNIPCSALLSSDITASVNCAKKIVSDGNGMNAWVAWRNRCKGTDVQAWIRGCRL
Experimental: The LOD is estimated to be 0.36 μg/mL (2.4 pmol, based on 3σ from six independent measurements) using a standard fluorometer, which is more sensitive to aptamer-based electrochemical and fluorescent arrays and is similar to that obtained from a standard of ELISA. (See Vidal, M. L., et al., Agric. Food Chem. 2005, 53, 2379-2385, the entire teachings of which are incorporated herein by reference). However, the strategy of using Apt-NP as a platform for lysozyme detection reduces the bonding affinity (Kd) of the aptamer to its target. […] (See, for example, Cox, J. C.; Ellington, A. D., Bioorg. Med. Chem. 2001, 9, 2525-2531, the entire teachings are incorporated herein by reference). The large Kd on the NP surface is detrimental to assay sensitivity, could be the result of: (1) the steric hindrance induced by the folded aptamer upon binding to lysozyme which prevents the adjacent aptamers from folding into G-quartet structure; (2) the binding of lysozyme on the Apt-NP surface hampers subsequent aptamer/lysozyme binding due to electrostatic repulsion.

lysozyme [3] = target: T1, lysozyme; conditions: in solution; read-out: Kd measured in solution; cited from earlier work

Compound: O=C1OC2(c3ccc(O)cc3Oc3cc(O)ccc32)c2ccc(N=C=S)cc21 [FITC]
- decrease of fluorescence intensity after continuous excitation [1]: ~56%

Compound: 5′-NH2-ATCTACGAATTCATCAGGGCTAAAGAGTGCAGAGTTACTTAG (ATCTACGAATTCATCAGGGCTAAAGAGTGCAGAGTTACTTAG; 5' {NH2}, sugars by position and backbone not given here) [aptamer]
- apparent Kd (lysozyme [2]; aptamer on silica NP surface, lysozyme concentration at half-maximum signal): approximately 9 μg/mL
- Kd (lysozyme [2]; aptamer on silica NP surface, lysozyme concentration at half-maximum signal, read-out: apparent Kd): ~625 nM
- Kd on NP surface relative to Kd in solution (lysozyme [2]; larger): 20 fold
- Kd (lysozyme [3]): 31 nM

- water solubility: approximately 20 mg/mL
Compound: Poly[9,9-bis(2-(2-(2-methoxyethoxy)ethoxy)ethyl)fluorenevinylene-alt-9,9-bis(4-sulfonatobutyl)fluorenevinylene Sodium Salt] [PFVSO3]
